Results on 31 compounds are retold here after patent publication US9539252B2, “Piperazine-substituted benzothiophene derivatives as antipsychotic agents” (OTSUKA PHARMACEUTICAL CO., LTD., priority 2011, dated 2017).

The nature of this data set: Solubility in oil (sesame oil, benzyl benzoate), visual observation. To be noted: benzyl benzoate, oil or lipid, thermodynamic from solid.

A value given as a limit tells only on which side of the number the result lay.

As usually defined, the solubility is the concentration that dissolves in the medium under given conditions. High values mean much dissolved substance, low ones little dissolved substance.

On to `O=C(NCCC(F)(F)F)OCN1C(=O)CCc2ccc(OCCCCN3CCN(c4cccc5sccc45)CC3)cc21` [Example 93, N-(3,3,3-trifluoropropyl)carbamic acid 7-[4-(4-benzo[b]thiophen-4-ylpiperazin-1-yl)butoxy]-2-oxo-3,4-dihydro-2H-quinolin-1-ylmethyl ester], for which the solubility was above 100 mg/mL. The value for `CCCC(C)C(=O)OCn1c(=O)ccc2ccc(OCCCCN3CCN(c4cccc5sccc45)CC3)cc21` (stereo not shown) [Example 94, 2-methylpentanoic acid 7-[4-(4-benzo[b]thiophen-4-ylpiperazin-1-yl)butoxy]-2-oxo-2H-quinolin-1-ylmethyl ester] was above 100 mg/mL. The figure for `CCCCCCCCCCCCCCCCC(=O)OCN1C(=O)CCc2ccc(OCCCCN3CCN(c4cccc5sccc45)CC3)cc21` [Example 95, heptadecanoic acid 7-[4-(4-benzo[b]thiophen-4-ylpiperazin-1-yl)butoxy]-2-oxo-3,4-dihydro-2H-quinolin-1-ylmethyl ester] is above 100 mg/mL; for `O=C(OCN1C(=O)CCc2ccc(OCCCCN3CCN(c4cccc5sccc45)CC3)cc21)c1ccoc1` [Example 96, furan-3-carboxylic acid 7-[4-(4-benzo[b]thiophen-4-ylpiperazin-1-yl)butoxy]-2-oxo-3,4-dihydro-2H-quinolin-1-ylmethyl ester] it is above 100 mg/mL; for `COCCNC(=O)OCN1C(=O)CCc2ccc(OCCCCN3CCN(c4cccc5sccc45)CC3)cc21` [Example 97, N-(2-methoxyethyl)carbamic acid 7-[4-(4-benzo[b]thiophen-4-ylpiperazin-1-yl)butoxy]-2-oxo-3,4-dihydro-2H-quinolin-1-ylmethyl ester] it is above 100 mg/mL. The compound `CCOC(=O)CCNC(=O)OCn1c(=O)ccc2ccc(OCCCCN3CCN(c4cccc5sccc45)CC3)cc21` [Example 99, 3-{7-[4-(4-benzo[b]thiophen-4-ylpiperazin-1-yl)butoxy]-2-oxo-2H-quinolin-1-ylmethoxycarbonylamino}-propionic acid ethyl ester] came in with a solubility above 100 mg/mL. On to `CCCCOCCOCC(=O)OCN1C(=O)CCc2ccc(OCCCCN3CCN(c4cccc5sccc45)CC3)cc21` [Example 100, (2-butoxyethoxy)acetic acid 7-[4-(4-benzo[b]thiophen-4-ylpiperazin-1-yl)butoxy]-2-oxo-3,4-dihydro-2H-quinolin-1-ylmethyl ester], for which the solubility was above 100 mg/mL.

`COC(=O)CCCNC(=O)OCn1c(=O)ccc2ccc(OCCCCN3CCN(c4cccc5sccc45)CC3)cc21` [Example 101, 4-{7-[4-(4-benzo[b]thiophen-4-ylpiperazin-1-yl)butoxy]-2-oxo-2H-quinolin-1-ylmethoxycarbonylamino}butyric acid methyl ester] displayed a solubility above 100 mg/mL. The value for `CN1CCC(C(=O)OCN2C(=O)CCc3ccc(OCCCCN4CCN(c5cccc6sccc56)CC4)cc32)CC1` [Example 102, 1-methylpiperidine-4-carboxylic acid 7-[4-(4-benzo[b]thiophen-4-ylpiperazin-1-yl)butoxy]-2-oxo-3,4-dihydro-2H-quinolin-1-ylmethyl ester] was above 100 mg/mL; that for `CCCCC(C)(C)C(=O)OCn1c(=O)ccc2ccc(OCCCCN3CCN(c4cccc5sccc45)CC3)cc21` [Example 103, 2,2-dimethylhexanoic acid 7-[4-(4-benzo[b]thiophen-4-ylpiperazin-1-yl)butoxy]-2-oxo-2H-quinolin-1-ylmethyl ester] was above 100 mg/mL; that for `CCCCCCCCCCCCCCC(=O)OCn1c(=O)ccc2ccc(OCCCCN3CCN(c4cccc5sccc45)CC3)cc21` [Example 104, pentadecanoic acid 7-[4-(4-benzo[b]thiophen-4-ylpiperazin-1-yl)butoxy]-2-oxo-2H-quinolin-1-ylmethyl ester] was above 100 mg/mL.

As to `CC(C)CCC(=O)OCN1C(=O)CCc2ccc(OCCCCN3CCN(c4cccc5sccc45)CC3)cc21` [Example 105, 4-methylpentanoic acid 7-[4-(4-benzo[b]thiophen-4-ylpiperazin-1-yl)butoxy]-2-oxo-3,4-dihydro-2H-quinolin-1-ylmethyl ester], the solubility is above 100 mg/mL.

As to `O=C(OCN1C(=O)CCc2ccc(OCCCCN3CCN(c4cccc5sccc45)CC3)cc21)C1CCCCCC1` [Example 106, cycloheptanecarboxylic acid 7-[4-(4-benzo[b]thiophen-4-ylpiperazin-1-yl)butoxy]-2-oxo-3,4-dihydro-2H-quinolin-1-ylmethyl ester], the solubility was above 100 mg/mL. The value for `O=C(NOCc1ccccc1)OCN1C(=O)CCc2ccc(OCCCCN3CCN(c4cccc5sccc45)CC3)cc21` [Example 107, benzyloxycarbamic acid 7-[4-(4-benzo[b]thiophen-4-ylpiperazin-1-yl)butoxy]-2-oxo-3,4-dihydro-2H-quinolin-1-ylmethyl ester] was above 100 mg/mL; that for `CCCCCCCCCCCCCCCCC(=O)OCn1c(=O)ccc2ccc(OCCCCN3CCN(c4cccc5sccc45)CC3)cc21` [Example 108, heptadecanoic acid 7-[4-(4-benzo[b]thiophen-4-ylpiperazin-1-yl)butoxy]-2-oxo-2H-quinolin-1-ylmethyl ester] was above 100 mg/mL. With `COCCNC(=O)OCn1c(=O)ccc2ccc(OCCCCN3CCN(c4cccc5sccc45)CC3)cc21` [Example 109, N-(2-methoxyethyl)carbamic acid 7-[4-(4-benzo[b]thiophen-4-ylpiperazin-1-yl)butoxy]-2-oxo-2H-quinolin-1-ylmethyl ester], the solubility was above 100 mg/mL.

Turning to `O=C(NCc1ccco1)OCn1c(=O)ccc2ccc(OCCCCN3CCN(c4cccc5sccc45)CC3)cc21` [Example 110], the solubility was above 100 mg/mL.

Compound `CN(Cc1ccccc1)C(=O)OCn1c(=O)ccc2ccc(OCCCCN3CCN(c4cccc5sccc45)CC3)cc21` [Example 111, N-benzyl-N-methylcarbamic acid 7-[4-(4-benzo[b]thiophen-4-ylpiperazin-1-yl)butoxy]-2-oxo-2H-quinolin-1-ylmethyl ester] returned a solubility above 100 mg/mL.

`C=CCNC(=O)OCn1c(=O)ccc2ccc(OCCCCN3CCN(c4cccc5sccc45)CC3)cc21` [Example 112, N-allylcarbamic acid 7-[4-(4-benzo[b]thiophen-4-ylpiperazin-1-yl)butoxy]-2-oxo-2H-quinolin-1-ylmethyl ester] registered a solubility above 100 mg/mL. The figure for `O=C(NCc1ccccn1)OCn1c(=O)ccc2ccc(OCCCCN3CCN(c4cccc5sccc45)CC3)cc21` [Example 113] is above 100 mg/mL; for `C=CCCCCCCCCC(=O)OCN1C(=O)CCc2ccc(OCCCCN3CCN(c4cccc5sccc45)CC3)cc21` [Example 114, undec-10-enoic acid 7-[4-(4-benzo[b]thiophen-4-ylpiperazin-1-yl)butoxy]-2-oxo-3,4-dihydro-2H-quinolin-1-ylmethyl ester] it is above 100 mg/mL; for `O=C(NCCc1ccccc1)OCn1c(=O)ccc2ccc(OCCCCN3CCN(c4cccc5sccc45)CC3)cc21` [Example 116, N-phenethylcarbamic acid 7-[4-(4-75 benzo[b]thiophen-4-ylpiperazin-1-yl)butoxy]-2-oxo-2H-quinolin-1-ylmethyl ester] it is above 100 mg/mL.

In turn, `CC(C)NC(=O)OCn1c(=O)ccc2ccc(OCCCCN3CCN(c4cccc5sccc45)CC3)cc21` [Example 117, N-isopropyl-carbamic acid 7-[4-(4-benzo[b]thiophen-4-ylpiperazin-1-yl)butoxy]-2-oxo-2H-quinolin-1-ylmethyl ester] yielded a solubility above 100 mg/mL. On to `O=C(OCn1c(=O)ccc2ccc(OCCCCN3CCN(c4cccc5sccc45)CC3)cc21)C1CCCCCC1` [Example 119, cycloheptanecarboxylic acid 7-[4-(4-benzo[b]thiophen-4-ylpiperazin-1-yl)butoxy]-2-oxo-2H-quinolin-1-ylmethyl ester], for which the solubility is above 100 mg/mL. The value for `O=C(OCN1C(=O)CCc2ccc(OCCCCN3CCN(c4cccc5sccc45)CC3)cc21)C1CCOCC1` [Example 120, tetrahydropyran-4-carboxylic acid 7-[4-(4-benzo[b]thiophen-4-ylpiperazin-1-yl)butoxy]-2-oxo-3,4-dihydro-2H-quinolin-1-ylmethyl ester] was above 100 mg/mL; that for `CC(C)(C)OC(=O)CC(=O)OCN1C(=O)CCc2ccc(OCCCCN3CCN(c4cccc5sccc45)CC3)cc21` [Example 121, malonic acid 7-[4-(4-benzo[b]thiophen-4-ylpiperazin-1-yl)butoxy]-2-oxo-3,4-dihydro-2H-quinolin-1-ylmethyl ester tert-butyl ester] was above 100 mg/mL; that for `O=C(OCn1c(=O)ccc2ccc(OCCCCN3CCN(c4cccc5sccc45)CC3)cc21)N1CCC(F)(F)CC1` [Example 123, 4,4-difluoropiperidine-1-carboxylic acid 7-[4-(4-benzo[b]thiophen-4-ylpiperazin-1-yl)butoxy]-2-oxo-2H-quinolin-1-ylmethyl ester] was above 100 mg/mL.

Turning to `O=C(CCC(F)(F)F)OCN1C(=O)CCc2ccc(OCCCCN3CCN(c4cccc5sccc45)CC3)cc21` [Example 124, 4,4,4-trifluorobutyric acid 7-[4-(4-benzo[b]thiophen-4-ylpiperazin-1-yl)butoxy]-2-oxo-3,4-dihydro-2H-quinolin-1-ylmethyl ester], the solubility is above 100 mg/mL. The value for `CN(Cc1ccco1)C(=O)OCn1c(=O)ccc2ccc(OCCCCN3CCN(c4cccc5sccc45)CC3)cc21` [Example 125, N-furan-2-ylmethyl-N-methylcarbamic acid 7-[4-(4-benzo[b]thiophen-4-ylpiperazin-1-yl)butoxy]-2-oxo-2H-quinolin-1-ylmethyl ester] was above 100 mg/mL; that for `CC(C)CCC(=O)OCn1c(=O)ccc2ccc(OCCCCN3CCN(c4cccc5sccc45)CC3)cc21` [Example 126, 4-methylpentanoic acid 7-[4-(4-benzo[b]thiophen-4-ylpiperazin-1-yl)butoxy]-2-oxo-2H-quinolin-1-ylmethyl ester] was above 100 mg/mL; that for `O=C(OCN1C(=O)CCc2ccc(OCCCCN3CCN(c4cccc5sccc45)CC3)cc21)C1CCC1` [Example 127, cyclobutanecarboxylic acid 7-[4-(4-benzo[b]thiophen-4-ylpiperazin-1-yl)butoxy]-2-oxo-3,4-dihydro-2H-quinolin-1-ylmethyl ester] was above 100 mg/mL.
